Assay results reported in patent US10906904B2, “ADO-resistant cysteamine analogs and uses thereof” (HORIZON ORPHAN LLC, priority 2015, dated 2021).
Where two headings read alike, the source gives them in different places.

How the values were obtained:
[1] = Cystine reactivity assay; set-up: Cystine Reactivity: unit not given here; conditions: for Cystine Reactivity Assay (30° C.) (%) Mean Value: percentage of 3 mM cysteamine
Experimental: Cystine reactivity was assessed by incubating 3 mM test compound with 100 nM BODIPY® FL L-Cystine (Life Tech.) at 30° C., pH 7.4 in phosphate buffer. […] Compound cystine reactivity was expressed as a percentage of that of 3 mM cysteamine.
Under resting conditions, the inherent fluorescence of BODIPY® FL L-cystine was very low due to the spatial proximity of the two BODIPY molecules causing quenching. Under chemical reaction (disruption of the S—S bond), the spatial distance was increased, the quenching lost, and measured fluorescence increased. Time (minutes) vs. fluorescence (relative fluorescence units—RFU) was plotted and linear regression analysis was performed to generate a slope value corresponding to the reaction rate in RFU/min and an R2 value.

[2] = target: T1, human recombinant ADO (Homo sapiens, UniProt Q96SZ5); assay type: in vitro ADME
T1 sequence (Q96SZ5 1-270): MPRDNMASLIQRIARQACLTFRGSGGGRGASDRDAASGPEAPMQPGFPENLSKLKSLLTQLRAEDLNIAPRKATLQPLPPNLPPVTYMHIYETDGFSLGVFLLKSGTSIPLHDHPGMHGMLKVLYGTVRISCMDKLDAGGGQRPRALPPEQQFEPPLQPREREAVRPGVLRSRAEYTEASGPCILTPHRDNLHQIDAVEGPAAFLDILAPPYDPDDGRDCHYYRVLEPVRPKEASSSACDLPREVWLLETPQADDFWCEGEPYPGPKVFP
Experimental: The rate of ADO metabolism was determined by incubating 15 mM test compound with 60 μg/ml human recombinant ADO and 20 nM MitoXpress® O2-sensitive fluorescent probe (Luxcel) at 37° C. in assay buffer/salt in a sealed assay chamber. The initial rate of fluorescence (excitation λ380 nm and emission λ650 nm) increase was used to measure ADO-dependent oxygen depletion activity. The ability of ADO to metabolize compounds and concomitantly consume oxygen was expressed relative to that of 15 mM cysteamine.

[3] = system: cystinotic human fibroblasts; test: Cystine depletion assay; assay type: cell-based; conditions: for Emax: Homo sapiens, Fibroblast, 1 h, relative to cystine depletion by cysteamine (100%) at a similar concentration
Experimental: The ability of test compounds to deplete cystine from cystinotic human fibroblasts (Coriell) was determined by incubating compounds with cells for 60 min at 37° C., 95% (v/v) air/5% (v/v) CO2 in Minimal Essential Media Eagle. Treated cell samples were subsequently harvested, then homogenized to ensure plasma and lysosomal membrane disruption. Protein was removed by acid precipitation and cystine in the supernatant measured using LC-MS/MS and HILIC chromatography. Protein levels were determined and cystine levels reported as nM per mg/ml protein. Cystine levels after test compound treatment were expressed as a percentage of that of untreated control cells.
Compounds were assayed at a concentration of 50 μM or 100 μM according to the general methods described above.
Cystine depletion levels for the compounds are expressed in Table 4 as a percent relative to the cystine depletion achieved by cysteamine (c.f. cysteamine 100%) at a similar concentration.
Cystine depletion levels for each of the compounds in Table 5 are expressed as a percent relative to the cystine depletion achieved by cysteamine (c.f. cysteamine 100%) at a similar concentration.

[4] = system: St-HdhQ^111/111 cells; test: Glutamate-induced neuronal excitotoxicity assay; assay type: cell-based; conditions: STHdhQ111, 6 mM L-glutamate 24 hours, % of effect of 100 μM cysteamine; for viability at 10 µM: read-out: HdhQ^111/111 cell % survival (mean ± STD) Test Conc. 10 μM; for viability at 100 µM: read-out: HdhQ^111/111 cell % survival (mean ± STD) Test Conc. 100 μM
Experimental: The ability of test compounds to inhibit glutamate-induced excitotoxicity (neuroprotection) in St-HdhQ^111/111 cells was determined by incubating compounds with cells for 60 min at 33° C., 95% (v:v) air/5% (v:v) CO2 in Dulbecco's Modified Eagle Media. Following this, excitotoxicity was induced by the addition of 6 mM L-glutamate for 24 hours. Cell viability was assessed by measuring ATP levels using a luminescent-based CellTitre Glo assay (Promega). Compound neuroprotection (% cell survival) was expressed as a % of the effect recorded with 100 μM cysteamine (denoted as 100% cell survival).

[5] = Table 5, read-out: Cystine Depletion (%) Mean Value
[6] = Table 4, read-out: Cystine Depletion (%)

ADO Metabolism Assay (%) Mean Value ([2]; human, 15 mM) [%] | Structure (SMILES) | Cystine Reactivity Assay (30° C.) (%) Mean Value ([1]; Table 5) | Emax [3, 5] [%] | viability at 10 µM [4] [%] | viability at 100 µM [4] [%] | Cystine Reactivity Assay (30° C.) (%) Mean Value ([1]; Table 4) | Emax [3, 6] [%] | further results
<25 | SC[C@H]1CCCCN1 [Compound 145590] | >90% | 104 | 14 ± 7 | 90 ± 11 |  |  | 
<25 | SC[C@H]1CCCN1 [Compound 42211] |  |  | 2 ± 9 | 84 ± 19 | >90% | 79 | 
<25 | OC1(CS)CCNCC1 [Compound 145610] | <50% | 11 | 11 ± 8 | 87 ± 10 |  |  | 
<25 | SC1CCCNC1 (stereo not shown) [Compound 42208] |  |  |  |  | >90% | 102 | 
<25 | SCC1CCNCC1 [Compound 145586] | 50-90% | 21 | 9 ± 6 | 89 ± 9 |  |  | 
<25 | SC1CCCCNC1 (stereo not shown) [Compound 42345] |  |  |  |  | >90% | 50 | 
<25 | SCC1CCCNC1 (stereo not shown) [Compound 145588] | >90% | 31 | 9 ± 9 | 98 ± 5 |  |  | 
<25 | SCC1COCCN1 (stereo not shown) [Compound 145591] | 50-90% | 61 |  |  |  |  | 
<25 | S[C@@H]1CCNC1 [Compound 42617] |  |  | 7 ± 10 | 89 ± 7 | 59-90% | 101 | 
<25 | S[C@H]1CCNC1 [Compound 42616] |  |  | 5 ± 7 | 56 ± 7 | 59-90% | 79 | 
<25 | C[C@H]1CNCC[C@@H]1S [Compound 42614] |  |  | 2 ± 6 | 59 ± 12 |  | 117 | 
<25 | S[C@H]1CCCNC1 [Compound 42247] |  |  | 5 ± 8 | 84 ± 13 | >90% | 96 | 
<25 | S[C@@H]1CCCNC1 [Compound 42248] |  |  | 2 ± 7 | 81 ± 6 | >90% | 103 | 
<25 | N[C@H]1C[C@@H](CS)C1 [Compound 145587] | >90% | 13 | 52 ± 9 | 97 ± 7 |  |  | 
<25 | C[C@@H]1CNCC[C@@H]1S [Compound 42615] |  |  |  |  | <50% | 106 | 
<25 | CC1(S)CCCNC1 (stereo not shown) [Compound 42388] | >90% | 63 | 5 ± 6 | 91 ± 5 | >90% | 97 | 

Further lines, the molecule ahead of its results:

Structure (SMILES) | ADO Metabolism Assay (%) Mean Value ([2]; human, 15 mM) [%] | Cystine Reactivity Assay (30° C.) (%) Mean Value ([1]; Table 5) | Emax [3, 5] [%] | viability at 10 µM [4] [%] | viability at 100 µM [4] [%] | Cystine Reactivity Assay (30° C.) (%) Mean Value ([1]; Table 4) | Emax [3, 6] [%] | further results
CS(=O)(=O)N1CCNC(CS)C1 (stereo not shown) [Compound 145694] | <25 | >90% | 0 | 2 ± 10 | 15 ± 15 |  |  | 
CCN1CCCC1 [Compound 145611] | <25 | <50% | 9 | 24 ± 13 | 94 ± 8 |  |  | 
C[C@H]1CC[C@H](S)CN1 [Compound 42613] | <25 |  |  |  |  | >90% | 109 | 
CC(C)(S)CN [Compound 3a] |  |  |  |  |  |  |  | Cystine Reactivity ([1]; Tables 1-3): 2284; metabolism by ADO compared to cysteamine (in words) [2]: significantly reduced metabolism by ADO compared to cysteamine; ADO metabolism ([2]; human, 15 mM): 14%; cystine depletion levels (in words) ([3]; compared to cysteamine): slightly decreased; Cystine depletion ([3]; compound at 50 μM or 100 μM, Tables 1-3): 32%
CN[C@H]1C[C@H](S)C1 [Compound 149609] | <25 | <50% | 50 |  |  |  |  | 
O=S(=O)([O-])CCS.[Na+] [Compound 145566] |  | <50% | 16 |  |  |  |  | ADO Metabolism Assay (%) Mean Value ([2]; Table 5, relative to 15 mM cysteamine): <25%
OCCC1(S)CNC1 [Compound 145695] | <25 | >90% | 0 | 8 ± 10 | 74 ± 10 |  |  | 
N[C@H]1C[C@@H](S)C1 [Compound 42457] | <25 | 50-90% | 77 | 6 ± 5 | 91 ± 6 | 59-90% | 108 | 
NC1CC(S)C1 (stereo not shown) [Compound 42209] | <25 |  |  |  |  | 59-90% | 99 | 
SC1CC2(CNC2)C1 [Compound 42611] | <25 |  |  |  |  | >90% | 55 | 
SC1CC2CCC(C1)N2 (stereo not shown) [Compound 42494] | <25 |  |  | 0 | 28 ± 17 | 59-90% | 88 | 
CNC1CC(S)C1 (stereo not shown) [Compound 149608] | <25 | <50% | 55 |  |  |  |  | 
CC(C)(C)N1CCC(S)CC1 [Compound 145584] | <25 | >90% | 0 |  |  |  |  | 
CCOC(=O)C1(S)CCCNC1 (stereo not shown) [Compound 42493] | <25 |  |  | 6 ± 10 | 87 ± 10 | 50-90% | 74 | 
C[C@H](CS)C(=O)N1CCC[C@H]1C(=O)O [Compound 653] |  | <50% | 23 |  |  |  |  | ADO Metabolism Assay (%) Mean Value ([2]; human): <25%
SC12CCN(CC1)CC2 [Compound 42389] | <25 |  |  |  |  | 50-90% | 36 | 
CCN(CC)C(=S)SSC(=S)N(CC)CC [Compound 981] | <25 | <50% | 25 |  |  |  |  | 
NC1CC(O)(CS)C1 (stereo not shown) [Compound 149610] | <25 | <50% | 15 |  |  |  |  | 
N[C@H]1C[C@H](S)C1 [Compound 42460] | <25 |  |  | 3 ± 5 | 95 ± 9 | 59-90% | 111 | 
